Laboratory results reported in patent publication US9193708B2, “Non-flushing niacin analogues, and methods of use thereof” (Trustees of Tufts College, priority 2006, dated 2015).

Key:
[1] = test system: Hep-G2 cells; experiment: HDL uptake by Hep-G2 cells (125I-labelled HDL), proxy for HDL-raising activity; format: cell-based; conditions: compared with niacin
Experimental: • Split HepG2 cells in 24 well plates 2˜3 days prior to niacin treatment, 0.5 mL complete DMEM media is added per well • Cells were pre-incubated with niacin (1 mM) for 24˜48 h • Wash HepG2 cells 3 times with PBS • Incubate HepG2 cells in […] medium C(DMEM containing 5 mg/mL fatty acid free BSA), containing ^125I-labelled HDL ([…] with specificity ofo 300-500 cpm/ng HDL protein. For 16 h • Aspirate the media and wash the cells with 0.5 mL of 0.1 mg/mL BSA-PBS twice, and with PBS twice • Cells were digested in […] of 1 N NaOH at room temperature overnight • […] of cell lysate was used for gamma-counting • […] of cell lysate was used for protein assay by BCA method • HDL uptake activity is expressed as “cpm of ^125I-HDL uptake/mg of cell protein.

[2] = test system: THP-1 macrophages; experiment: PGD2 release by THP-1 macrophages, proxy for flush inducing activity; format: cell-based; conditions: compared with niacin
Experimental: THP-1 cells were grown in RPMI complete media • 2×10^6 cells/well in 24 well flask were seeded in serum free media containing […] of PMA. Cells were allowed to differentiate into macrophages for 12 hours • The media was replaced with complete RPMI media and incubation continued for 5 hours • After incubation, media was aspirated and cells were treated with niacin and niacin analogs in 1 mL of serum free RPMI media. • Incubated for 30 min. […] of media was collected, PGD2 secreted was derivitized into stable MOX derivative. • PGD2 in the sample was assayed by using PGD2 assay kit from Cayman chemicals. Incorporation By Reference

[3] = humans, daily oral doses of 2-3 g; cited from earlier work

SMILES | reduction of HDL uptake / HDL-raising activity relative to niacin [1] | induction of PGD2 release / flush inducing activity relative to niacin [2] | effect on Lp(a) [3]
O=C(O)C/C=C/c1cccnc1 [Compound 2035, 4-pyridin-3-yl-but-3-enoic acid] | essentially as well as niacin | very much less ability to induce PDG2 release | 
O=C(O)c1cccnc1 [niacin] |  |  | reduce Lp(a)
